Measurements as given in US20170190671A1, “BIS(ARYL)CATECHOL DERIVATIVES AS HERBICIDES” (E I DU PONT DE NEMOURS AND COMPANY, priority 2014, published 2017).

Tests used:
Assay type in all cases: in vivo
[1] = system: barnyardgrass (Echinochloa crus-galli); test: Test B flooded paddy; conditions: Echinochloa crus-galli, 336 h; 250 g ai/ha, Flood, 13 to 15 days, scale 0 (no effect) to 100 (complete control); read-out: Plant response rating, Barnyardgrass
Method in brief: (§1)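 Ratings were visual and made relative to untreated controls after 13 to 15 greenhouse days.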

[2] = system: ducksalad (Heteranthera limosa); test: Test B flooded paddy; conditions: Heteranthera limosa, 336 h; 250 g ai/ha, Flood, 13 to 15 days, scale 0 (no effect) to 100 (complete control); read-out: Plant response rating, Ducksalad
Method in brief: as §1

rice (Oryza sativa) = test: Test B flooded paddy; conditions: Oryza sativa, 336 h; 250 g ai/ha, Flood, 13 to 15 days, scale 0 (no effect) to 100 (complete control); read-out: Plant response rating, Rice
Method in brief: as §1

[3] = system: sedge, umbrella (small-flower umbrella sedge, Cyperus difformis); test: Test B flooded paddy; conditions: Cyperus difformis, 336 h; 250 g ai/ha, Flood, 13 to 15 days, scale 0 (no effect) to 100 (complete control); read-out: Plant response rating, Sedge, Umbrella
Method in brief: as §1

[4] = system: Italian ryegrass (Lolium multiflorum); test: Test A preemergence; conditions: Lolium multiflorum, pre-emergence, 240 h, 0 to 100 scale (0 no effect, 100 complete control), read-out: Ryegrass, Italian plant response rating
Method in brief: (§2)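 Visual 0–100 rating (100 = complete control) taken about 10 d post-treatment relative to untreated checks. Preemergence: directed soil spray on sown loam/sand pots. Postemergence: seedlings 2–10 cm, 1–2 leaf. Non-phytotoxic solvent formulation with surfactant.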

[5] = system: barnyardgrass (Echinochloa crus-galli); test: Test A preemergence; conditions: Echinochloa crus-galli, pre-emergence, 240 h, 0 to 100 scale (0 no effect, 100 complete control), read-out: Barnyardgrass plant response rating
Method in brief: as §2

[6] = system: giant foxtail (Setaria faberii); test: Test A preemergence; conditions: Setaria faberi, pre-emergence, 240 h, 0 to 100 scale (0 no effect, 100 complete control), read-out: Foxtail, Giant plant response rating
Method in brief: as §2

kochia (Kochia scoparia) [7] = test: Test A preemergence; conditions: Bassia scoparia, pre-emergence, 240 h, 0 to 100 scale (0 no effect, 100 complete control), read-out: Kochia plant response rating
Method in brief: as §2

[8] = system: pigweed (Amaranthus retroflexus); test: Test A preemergence; conditions: Amaranthus retroflexus, pre-emergence, 240 h, 0 to 100 scale (0 no effect, 100 complete control), read-out: Pigweed plant response rating
Method in brief: as §2

[9] = system: ragweed (common ragweed, Ambrosia elatior); test: Test A preemergence; conditions: Ambrosia artemisiifolia, pre-emergence, 240 h, 0 to 100 scale (0 no effect, 100 complete control), read-out: Ragweed plant response rating
Method in brief: as §2

[10] = system: Italian ryegrass (Lolium multiflorum); test: Test A postemergence; conditions: Lolium multiflorum, post-emergence, 240 h, 0 to 100 scale, read-out: Plant response rating, Ryegrass, Italian
Method in brief: as §2

[11] = system: barnyardgrass (Echinochloa crus-galli); test: Test A postemergence; conditions: Echinochloa crus-galli, post-emergence, 240 h, 0 to 100 scale, read-out: Plant response rating, Barnyardgrass
Method in brief: as §2

[12] = system: blackgrass (Alopecurus myosuroides); test: Test A postemergence; conditions: Alopecurus myosuroides, post-emergence, 240 h, 0 to 100 scale, read-out: Plant response rating, Blackgrass
Method in brief: as §2

corn (Zea mays) = test: Test A postemergence; conditions: Zea mays, post-emergence, 240 h, 0 to 100 scale
Method in brief: as §2

[13] = system: galium (catchweed bedstraw, Galium aparine); test: Test A postemergence; conditions: Galium, post-emergence, 240 h, 0 to 100 scale, read-out: Plant response rating, Galium
Method in brief: as §2

[14] = system: giant foxtail (Setaria faberii); test: Test A postemergence; conditions: Setaria faberi, post-emergence, 240 h, 0 to 100 scale, read-out: Plant response rating, Foxtail, Giant
Method in brief: as §2

kochia (Kochia scoparia) [15] = test: Test A postemergence; conditions: Bassia scoparia, post-emergence, 240 h, 0 to 100 scale, read-out: Plant response rating, Kochia
Method in brief: as §2

[16] = system: pigweed (Amaranthus retroflexus); test: Test A postemergence; conditions: Amaranthus retroflexus, post-emergence, 240 h, 0 to 100 scale, read-out: Plant response rating, Pigweed
Method in brief: as §2

[17] = system: ragweed (common ragweed, Ambrosia elatior); test: Test A postemergence; conditions: Ambrosia artemisiifolia, post-emergence, 240 h, 0 to 100 scale, read-out: Plant response rating, Ragweed
Method in brief: as §2

[18] = system: wheat (Triticum aestivum); test: Test A postemergence; conditions: Triticum aestivum, post-emergence, 240 h, 0 to 100 scale, read-out: Plant response rating, Wheat
Method in brief: as §2

[19] = system: barnyardgrass (Echinochloa crus-galli); test: Test C preemergence; conditions: Echinochloa crus-galli, pre-emergence, read-out: Plant response rating, Barnyardgrass
Method in brief: (§3)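 Greenhouse test; preemergence to seeds in loam/sand soil, or postemergence spray to 2-18 cm, 1- to 4-leaf plants in peat/vermiculite medium; compound in non-phytotoxic solvent plus surfactant. Visual rating vs controls at 13-15 d, 0 = no effect, 100 = complete control.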

[20] = system: lambsquarters (Chenopodium album); test: Test C preemergence; conditions: Chenopodium album, pre-emergence, 336 h, scale 0 to 100, read-out: Plant response rating, Lambsquarters
Method in brief: as §3

N#Cc1cccc(Oc2ncc(Cl)cn2)c1Oc1ncc(C(F)(F)F)cn1 [Compound 38, 3-[(5-chloro-2-pyrimidinyl)oxy]-2-[[5-(trifluoromethyl)-2-pyrimidinyl]oxy]-benzonitrile]
pest or weed control at 250 g/ha [1]: 85%
pest or weed control at 250 g/ha [2]: 100%
plant injury at 250 g/ha (rice (Oryza sativa)): 45%
pest or weed control at 250 g/ha [3]: 100%
pest or weed control at 31 g/ha ([4]; 31 g ai/ha): 10%
pest or weed control at 125 g/ha ([4]; 125 g ai/ha): 90%
pest or weed control at 31 g/ha ([5]; 31 g ai/ha): 80%
pest or weed control at 125 g/ha ([5]; 125 g ai/ha): 100%
pest or weed control at 31 g/ha ([6]; 31 g ai/ha): 100%
pest or weed control at 125 g/ha ([6]; 125 g ai/ha): 100%
pest or weed control at 31 g/ha (kochia (Kochia scoparia) [7]; 31 g ai/ha): 90%
pest or weed control at 125 g/ha (kochia (Kochia scoparia) [7]; 125 g ai/ha): 100%
pest or weed control at 31 g/ha ([8]; 31 g ai/ha): 100%
pest or weed control at 125 g/ha ([8]; 125 g ai/ha): 100%
pest or weed control at 31 g/ha ([9]; 31 g ai/ha): 30%
pest or weed control at 125 g/ha ([9]; 125 g ai/ha): 90%
pest or weed control at 31 g/ha ([10]; 31 g ai/ha): 50%
pest or weed control at 125 g/ha ([10]; 125 g ai/ha): 90%
pest or weed control at 31 g/ha ([11]; 31 g ai/ha): 90%
pest or weed control at 125 g/ha ([11]; 125 g ai/ha): 90%
pest or weed control at 31 g/ha ([12]; 31 g ai/ha): 40%
pest or weed control at 125 g/ha ([12]; 125 g ai/ha): 90%
Corn plant response rating (crop injury, 0 = no effect, 100 = complete kill) at 31 g/ha (corn (Zea mays); 31 g ai/ha): 40%
Corn plant response rating (crop injury, 0 = no effect, 100 = complete kill) at 125 g/ha (corn (Zea mays); 125 g ai/ha): 90%
pest or weed control at 31 g/ha ([13]; 31 g ai/ha): 80%
pest or weed control at 125 g/ha ([13]; 125 g ai/ha): 100%
pest or weed control at 31 g/ha ([14]; 31 g ai/ha): 100%
pest or weed control at 125 g/ha ([14]; 125 g ai/ha): 100%
pest or weed control at 31 g/ha (kochia (Kochia scoparia) [15]; 31 g ai/ha): 100%
pest or weed control at 125 g/ha (kochia (Kochia scoparia) [15]; 125 g ai/ha): 100%
pest or weed control at 31 g/ha ([16]; 31 g ai/ha): 100%
pest or weed control at 125 g/ha ([16]; 125 g ai/ha): 100%
pest or weed control at 31 g/ha ([17]; 31 g ai/ha): 40%
pest or weed control at 125 g/ha ([17]; 125 g ai/ha): 70%
plant injury at 31 g/ha ([18]; 31 g ai/ha): 20%
plant injury at 125 g/ha ([18]; 125 g ai/ha): 90%
pest or weed control at 31 g/ha ([19]; 31 g ai/ha, preemergence, scale 0 to 100): 85%
pest or weed control at 62 g/ha ([19]; 62 g ai/ha, preemergence, scale 0 to 100): 100%
pest or weed control at 125 g/ha ([19]; 125 g ai/ha, preemergence, scale 0 to 100): 100%
pest or weed control at 16 g/ha ([19]; Preemergence, 16 g ai/ha, scale 0 to 100 (0 no effect, 100 complete control)): 50%
pest or weed control at 31 g/ha ([20]; 31 g ai/ha, preemergence): 90%
pest or weed control at 62 g/ha ([20]; 62 g ai/ha, preemergence): 95%
pest or weed control at 125 g/ha ([20]; 125 g ai/ha, preemergence): 98%
pest or weed control at 16 g/ha ([20]; Preemergence, 16 g ai/ha): 85%
